From patent US12172989B2, “Histone acetyltransferase (HAT) inhibitor and use thereof” (SHANGHAI INSTITUTE OF MATERIA MEDICA, CHINESE ACADEMY OF …, priority 2018, dated 2024)

How the values were obtained:
[1] = system: Human castration resistant prostate cancer cell line LNCaP clone FGC; test: Cell growth inhibition experiment (CellTiter-Glo), LNCaP clone FGC; assay type: cell-based; conditions: LNCaP clone FGC cells treated with the compound for 5 days
Method: (§1) Human castration resistant prostate cancer cell line 22Rv1 and LNCaP clone FGC (22Rv1 cell line was from ATCC, CRL-2505, LNCaP clone FGC cell line was purchased from Cell Bank of the Chinese Academy of Sciences) were cultured with RPMI 1640 medium (Gibco, available from Life Technologies Corporation, 22400-089) containing 10% fetal bovine serum (Gibco, available from Life Technologies, 10099-141) and 1% antibiotics (penicillin and streptomycin, available from Life Technologies Corporation, 10378016) in a CO2 cell incubator (37° C., 5% CO2). In the cell growth inhibition experiment, 22Rv1 and LNCaP clone FGC cells in exponential growth phase were seeded on a 96-well plate (purchased from Corning Company, 3599) with a volume of 150 μL/well and a cell density of 1,500 cells/well. After seeded, the plate was placed in a CO2 incubator to incubate overnight to allow the cells to adhere. On the next day, 50 μL of a compound at different concentrations diluted in 3-fold gradient or DMSO were added in a 96-well plate containing the cells. The final concentration of the compound ranges from 0.3 to 10000 nM, and the final concentration of DMSO is 0.05% as control group. The cells were treated by the compound for 5 days. Cell viability was measured using CellTiter-Glo reagent (purchased from Promega, G7572): the cell treated with the compound for 5 days was added with CellTiter-Glo reagent at 40 μL/well, incubated at room temperature for 10 min, transferred to a white 96-well plate (OptiPlate-96, purchased from PerkinElmer, 605299) by 70 μL. Subsequently, the luminescence signal was detected using a multifunctional microplate reader EnVision (purchased from PerkinElmer) at a wavelength of 400-700 nm. The data was analyzed by using GraphPad Prism 5.0 software to obtain IC50.

[2] = system: Human castration resistant prostate cancer cell line 22Rv1; test: Cell growth inhibition experiment (CellTiter-Glo), 22Rv1; assay type: cell-based; conditions: 22Rv1 cells treated with the compound for 5 days
Method: as §1

[3] = system: human mantle cell lymphoma (MCL) cell line MAVER-1; test: Cell growth inhibition experiment (CellTiter-Glo), MAVER-1; assay type: cell-based; conditions: MAVER-1 cells treated with the compound for 5 days
Method: The human mantle cell lymphoma (MCL) cell line MAVER-1 (from ATCC, CRL-3008) was cultured with RPMI 1640 medium (Gibco, available from Life Technologies Corporation, 22400-089) containing […] (Gibco, available from Life Technologies, 10099-141) and 1% antibiotics (penicillin and streptomycin, available from Life Technologies Corporation, 10378016) in a CO2 cell incubator (37° C., 5% CO2). In the cell growth inhibition experiment, MAVER-1 cells in exponential growth phase were seeded on a 96-well plate (purchased from Corning Company, 3599) in a volume of 100 μL/well and a cell density of 1*10E5 cells/well. After seeded, the plate was placed in a CO2 incubator to culture for 1 h. 100 μL of a compound at different concentrations diluted in 3-fold gradient or DMSO were added in a 96-well plate containing the cells. The final concentration of the compound ranges from 0.3 to 10000 nM, and the final concentration of DMSO is 0.05% as control group. The cells were treated with the compound for 5 days. Cell viability was measured using CellTiter-Glo reagent (purchased from Promega, G7572): the cells treated with the compound for 5 days was added with CellTiter-Glo reagent at 20 μL/well, incubated at room temperature for 10 min, transferred to a white 96-well plate (OptiPlate-96, purchased from PerkinElmer, 605299) by 80 μL. Subsequently, the luminescence signal was detected by using a multifunctional microplate reader EnVision (purchased from PerkinElmer) at a wavelength of 400-700 nm. The data was analyzed by using GraphPad Prism 5.0 software to obtain IC50.

[4] = molecular target: T1, histone acetyltransferase p300 (Homo sapiens, UniProt Q09472); test: Histone acetyltransferase (p300) activity assay (radioisotope, [3H]-Ac-CoA); assay type: biochemical; conditions: p300 0.05 nM; histone peptide 600 nM, [3H]-Ac-CoA 250 nM; 60 min at room temperature; read-out: Inhibition rate IC50
T1 construct: purchased BPS Corporation 50071
T1 sequence (Q09472 1284-1673 limits assumed): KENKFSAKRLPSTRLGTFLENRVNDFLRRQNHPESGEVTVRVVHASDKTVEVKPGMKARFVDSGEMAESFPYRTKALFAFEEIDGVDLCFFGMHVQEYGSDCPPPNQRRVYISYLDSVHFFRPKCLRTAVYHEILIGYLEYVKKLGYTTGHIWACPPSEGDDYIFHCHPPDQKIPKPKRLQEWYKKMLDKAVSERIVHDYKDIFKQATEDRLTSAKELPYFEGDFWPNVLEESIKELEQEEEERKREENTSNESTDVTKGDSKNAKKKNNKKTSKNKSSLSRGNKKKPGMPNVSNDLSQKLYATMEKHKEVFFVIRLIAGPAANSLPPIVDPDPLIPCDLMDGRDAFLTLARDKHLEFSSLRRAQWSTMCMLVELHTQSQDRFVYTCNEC
How it was run: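 p300 (0.05 nM final) was preincubated 15 min with compound (0.25–5000 nM final), then reacted 60 min at room temperature with histone peptide (600 nM) and [3H]-Ac-CoA (250 nM). The reaction was stopped with cold Ac-CoA, and peptide-bound radioactivity was captured on Flashplate and counted to derive IC50.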

| Compound | IC50 [1] [nM] | IC50 [2] [nM] | IC50 [3] [nM] | IC50 ([1]; Homo sapiens, 120 h) [nM] | IC50 ([2]; Homo sapiens, 120 h) [nM] | IC50 ([3]; Homo sapiens, Maver1, 120 h) [nM] | IC50 [4] [nM] |
| --- | --- | --- | --- | --- | --- | --- | --- |
| CNC(=O)Nc1ccc2c(c1)CC[C@@]21OC(=O)N(CC(=O)N(Cc2ccc(F)cc2)[C@@H](C)C(F)(F)F)C1=O [Example A-485, reference compound] | 215 | 384 | 206 |  |  |  |  |
| CNC(=O)Nc1ccc2c(c1)CCC21OC(=O)N(CC(=O)N2Cc3ccccc3CCC2C)C1=O (stereo not drawn) [SYY-B003] |  |  |  | 164 | 258 | 112 |  |
| CNC(=O)Nc1ccc2c(c1)CC[C@@]21OC(=O)N(CC(=O)N2Cc3ccccc3OC[C@H]2C)C1=O [SYY-B014-2] |  |  |  | 78 |  |  | 12 |
| CNC(=O)Nc1ccc2c(c1)CC[C@]21OC(=O)N(CC(=O)N2Cc3ccccc3CC[C@H]2C)C1=O [SYY-B015-1] |  |  |  | 168 | 345 | 104 | 12 |
| CNC(=O)Nc1ccc2c(c1)CC[C@@]21OC(=O)N(CC(=O)N2Cc3ccccc3CC[C@H]2C)C1=O [SYY-B015-2] |  |  |  | 15 | 33 | 18 | 3.7 |
| CNC(=O)Nc1ccc2c(c1)CC[C@]21OC(=O)N(CC(=O)N2Cc3ccccc3CC[C@H]2C2CC2)C1=O [SYY-B018-1] |  |  |  | 73 | 88 | 49 | 3.3 |
| CNC(=O)Nc1ccc2c(c1)CC[C@@]21OC(=O)N(CC(=O)N2Cc3ccccc3CC[C@H]2C2CC2)C1=O [SYY-B018-2] |  |  |  | 6 | 5 | 6 | 0.67 |
| CNC(=O)Nc1ccc2c(c1)CC[C@]21OC(=O)N(CC(=O)N2Cc3ccccc3CC[C@H]2C(C)C)C1=O [SYY-B019-1] |  |  |  | 186 | 205 | 40 | 2.7 |
| CNC(=O)Nc1ccc2c(c1)CC[C@@]21OC(=O)N(CC(=O)N2Cc3ccccc3CC[C@H]2C(C)C)C1=O [SYY-B019-2] |  |  |  | 9 | 5 | 17 | 2 |
| CNC(=O)Nc1ccc2c(c1)CC[C@]21OC(=O)N(CC(=O)N2Cc3ccc(F)cc3CC[C@H]2C)C1=O [SYY-B021-1] |  |  |  | 63 | 107 | 32 | 3 |
| CNC(=O)Nc1ccc2c(c1)CC[C@@]21OC(=O)N(CC(=O)N2Cc3ccc(F)cc3CC[C@H]2C)C1=O [SYY-B021-2] |  |  |  | 13 | 24 | 22 | 3 |
| CCC[C@@H]1CCc2ccccc2CN1C(=O)CN1C(=O)O[C@]2(CCc3cc(NC(=O)NC)ccc32)C1=O [SYY-B023-1] |  |  |  | 65 | 50 | 23 | 4 |
| CCC[C@@H]1CCc2ccccc2CN1C(=O)CN1C(=O)O[C@@]2(CCc3cc(NC(=O)NC)ccc32)C1=O [SYY-B023-2] |  |  |  | 4 | 3 | 12 | 2 |
| CCC[C@H]1CCc2ccccc2CN1C(=O)CN1C(=O)O[C@@]2(CCc3cc(NC(=O)NC)ccc32)C1=O [SYY-B024-2] |  |  |  | 53 | 77 | 116 | 24 |
| CNC(=O)Nc1ccc2c(c1)CC[C@]21OC(=O)N(CC(=O)N2Cc3ccc(F)cc3CC[C@H]2C2CC2)C1=O [SYY-B025-1] |  |  |  | 67 | 79 | 44 | 1.6 |
| CNC(=O)Nc1ccc2c(c1)CC[C@@]21OC(=O)N(CC(=O)N2Cc3ccc(F)cc3CC[C@H]2C2CC2)C1=O [SYY-B025-2] |  |  |  | 11 | 9 | 9 | 1.1 |
| CNC(=O)Nc1ccc2c(c1)CC[C@]21OC(=O)N(CC(=O)N2Cc3ccccc3CC[C@H]2C(F)(F)F)C1=O [SYY-B027-1] |  |  |  | 48 | 40 |  | 9.1 |
| CNC(=O)Nc1ccc2c(c1)CC[C@@]21OC(=O)N(CC(=O)N2Cc3cc(F)ccc3OC[C@H]2C2CC2)C1=O [SYY-B029-2] |  |  |  | 13 |  | 15 | 1.4 |
| CNC(=O)Nc1ccc2c(c1)CCC21NC(=O)N(CC(=O)N2Cc3ccc(F)cc3CC[C@H]2C2CC2)C1=O (stereo partly drawn) [SYY-B033] |  |  |  | 78 | 127 |  | 4.8 |
| CC(C)(N)C(=O)Nc1ccc2c(c1)CC[C@]21OC(=O)N(CC(=O)N2Cc3ccc(F)cc3CC[C@H]2C2CC2)C1=O [SYY-B037-1] |  |  |  | 13 | 64 |  | 1.5 |
| CC(C)(N)C(=O)Nc1ccc2c(c1)CC[C@@]21OC(=O)N(CC(=O)N2Cc3ccc(F)cc3CC[C@H]2C2CC2)C1=O [SYY-B038-1] |  |  |  | 6 | 13 |  | 1 |
| NC1(C(=O)Nc2ccc3c(c2)CC[C@]32OC(=O)N(CC(=O)N3Cc4ccc(F)cc4CC[C@H]3C3CC3)C2=O)CCC1 [SYY-B039-1] |  |  |  | 52 | 74 |  | 1.9 |
| NC1(C(=O)Nc2ccc3c(c2)CC[C@@]32OC(=O)N(CC(=O)N3Cc4ccc(F)cc4CC[C@H]3C3CC3)C2=O)CCC1 [SYY-B039-2] |  |  |  | 15 | 36 |  | 1.2 |
| Cn1cc(-c2ccc3c(c2)CC[C@]32OC(=O)N(CC(=O)N3Cc4ccc(F)cc4CC[C@H]3C3CC3)C2=O)cn1 [SYY-B041-1] |  |  |  | < 100 | < 100 |  | 4.3 |
| Cn1cc(-c2ccc3c(c2)CC[C@@]32OC(=O)N(CC(=O)N3Cc4ccc(F)cc4CC[C@H]3C3CC3)C2=O)cn1 [SYY-B041-2] |  |  |  | < 100 | < 100 |  | 3.4 |
